This note sets out measurements from PMC11184554, “Nature-Inspired Gallinamides Are Potent Antischistosomal Agents: Inhibition of the Cathepsin B1 Protease Target and Binding Mode Analysis” (ACS Infectious Diseases, 2024).

One experiment has as its system recombinant SmCB1. In words: Kinetic inhibition assay with recombinant SmCB1 (k2nd). In kind it is biochemical, S. mansoni. Conditions: for SmCB1 inhibition k2nd: second-order rate constant (kinact/Ki), substrate Cbz–Phe–Arg–AMC, pH 5.5, 37 °C, mean ± SE. On the procedure:
Gallinamide A and a series of its 18 derivatives were evaluated in vitro as inhibitors of SmCB1 to explore the binding specificities of the subsites in the enzyme’s active site. The gallinamide A inhibitor scaffold can be defined by positions P4 through P1′ (Schechter and Berger nomenclature[37]), which were assigned according to the binding mode analysis (see the crystallographic section below). The substituents R4, R1, and R1′ introduced on the scaffold (Table 2) are numbered according to the respective positions P4, P1, and P1′. The compounds’ second-order rate constants (k2nd) were determined using a kinetic inhibition assay with recombinant SmCB1 and the substrate, Cbz–Phe–Arg–AMC.
Inhibition measurements were performed in duplicate in 96-well microplates (100 μL assay volume) at 37 °C. SmCB1 (40 pM) was added to a mixture of the fluorogenic substrate Cbz–Phe–Arg–AMC (25 μM) and an inhibitor (0–100 μM) in 0.1 M sodium acetate, pH 5.5, containing 2.5 mM dithiothreitol and 0.01% (w/v) BRIJ 35. Substrate hydrolysis was monitored in an Infinite M1000 microplate reader (Tecan) at excitation and emission wavelengths of 360 and 465 nm, respectively, for up to 150 min. An observed first-order rate constant, kobs, was calculated at each inhibitor concentration by fitting the progress curve to the equation P = vi/kobs(1 – exp(−kobst)) + d where P is the product formation, t is the reaction time, vi is the initial velocity, and d is the offset. […] The second-order rate constant, k2nd, (and SE value) was determined by fitting the linear equation kobs = (k2nd[I])/(1 + [S]/Km), where [S] is the substrate concentration, [I] is the inhibitor concentration, and KM is the Michaelis–Menten constant. The KM value determined for SmCB1 was 25 μM. […] To determine IC50 values, SmCB1 (40 pM) was preincubated with the inhibitor (0–100 μM) for 30 min under assay conditions as described above, followed by the addition of the fluorogenic substrate Cbz–Phe–Arg–AMC (20 μM). Substrate hydrolysis was monitored for 30 min in a microplate reader as described above. The IC50 values were determined by nonlinear regression using GraFit software (Erithacus Software).

Experiment [1] concerns S. mansoni newly transformed schistosomula (NTS). In words: Phenotypic screen with newly transformed schistosomula (NTS). Format: cell-based. On the procedure: The same 19 gallinamides were screened for bioactivity against S. mansoni newly transformed schistosomula (NTS), the postinvasive parasite stage that feeds on host blood.[40] In this primary assay, the NTS were exposed to 1 and 10 μM compounds for 3 days, and the resulting phenotypic responses were graded from 0 through 4, i.e., the least to the most severe (Table 2 and Table S1). […] The effects were more pronounced after 72 h, and when the higher, 10 μM, compound concentration was used (Table S1). […] Also, compared to gallinamide A and its analogs, 3 has an additional N-terminal N-acetamide modification that further reduces bioactivity (Table 2).
Phenotypic screens employed S. mansoni newly transformed schistosomula (NTS) and adults and were carried out as described previously.[18]−[20],[42] NTS were prepared by mechanically transforming infective larvae (cercariae).[40],[42] NTS (200–300 parasites) were incubated in flat-bottomed 96-well plates in 200 μL of Basch Medium 169 containing 5% (v/v) FBS, 100 U mL^–1 penicillin and 100 μg mL^–1 streptomycin (complete Basch medium)[75] at 5% CO2 and 37 °C.[76],[77] Inhibitors were added at final concentrations of 1 and 10 μM, and changes in phenotypes were observed under an inverted microscope every 24 h for up to 72 h.
A constrained nomenclature of “descriptors”[39],[42] was used to record the multiple and dynamic changes in movement, shape, and translucence that the schistosome parasite is capable of (Table S1 for NTS and Table S3 for adults). These descriptors were then converted into an ordinal “severity score” system ranging from 0 (no effect) to 4 (maximum effect), which allows for the relative comparison of compound effects.

The mark [2] stands for this setting: 1 μM compound, 24 h, scale 0 (no effect) to 4 (most severe).
Where [3] appears, read: 1 μM compound, 48 h, scale 0 to 4.
Setting [4] is: 1 μM compound, 72 h, scale 0 to 4.
[5] abbreviates: 10 µM compound, 24 h, scale 0 to 4.
Where [6] appears, read: 10 µM compound, 48 h, scale 0 to 4.
Setting [7] is: 10 µM compound, 72 h, scale 0 to 4.

Consider `COC1=CC(=O)N(C(=O)/C=C/[C@H](Cc2ccccc2)NC(=O)[C@H](CC(C)C)NC(=O)[C@H](CC(C)C)OC(=O)[C@H](Cc2ccccc2)N(C)C)[C@H]1Cc1ccccc1` [compound 17], for which the “decrease in inhibition potency vs 8” value in the experiment on recombinant SmCB1 (ratio of k2nd values, range over the compounds named) was 4.2–49 fold. Further, the “SmCB1 inhibition k2nd” value in the experiment on recombinant SmCB1 turned out to be 18.2 ± 0.2 M^–1·s^–1. In addition, the schistosomula severity score in experiment [1] (setting [2]) amounted to 0; in experiment [1] (setting [3]) it was 0; in experiment [1] (setting [4]), 4; in experiment [1] (setting [5]), 1; in experiment [1] (setting [6]), 4; in experiment [1] (setting [7]) it was 4.

For `CCC(C)C(C(=O)OC(CC(C)C)C(=O)NC(CC(C)C)C(=O)NC(C=CC(=O)N1C(=O)C=C(OC)C1Cc1ccccc1)Cc1ccccc1)N(C)C` (stereo not drawn) [compound 7], the “improvement of inhibition vs 14” value in the experiment on recombinant SmCB1 (Phe in R1′ changed from S to R configuration) was 17 fold. In addition, the “SmCB1 inhibition k2nd” value in the experiment on recombinant SmCB1 is recorded as 942 ± 50 M^–1·s^–1. In addition, the schistosomula severity score in experiment [1] (setting [2]) was 0; in experiment [1] (setting [3]), 3; in experiment [1] (setting [4]), 4; in experiment [1] (setting [5]) it was 1; in experiment [1] (setting [6]), 4; in experiment [1] (setting [7]), 4. The schistosomula phenotype descriptors entry in experiment [1] (1 µM compound, 48 h) is “Dark, R, S”.

Take `CCC(C)C(NC(C)=O)C(=O)NC(CC(C)C)C(=O)NC(CC(C)C)C(=O)NC(C)C=CC(=O)N1C(=O)C=C(OC)C1C` (stereo not drawn) [compound 3]: the “decrease in inhibitory potency vs gallinamide A” value in the experiment with recombinant SmCB1 (ratio of k2nd values) was found to be 2.3 fold. The “SmCB1 inhibition k2nd” value with recombinant SmCB1 is on record as 2902 ± 172 M^–1·s^–1. For the same compound, the schistosomula severity score in experiment [1] (setting [2]) amounted to 0; in experiment [1] (setting [3]), 0; in experiment [1] (setting [4]) it was 2; in experiment [1] (setting [5]) it was 0; in experiment [1] (setting [6]), 2; in experiment [1] (setting [7]) it was 2. The schistosomula phenotype descriptors result in experiment [1] (1 µM compound, 72 h) is recorded as “Dark, R”; in experiment [1] (10 µM compound, 48 h), “Dark, R”; in experiment [1] (10 µM compound, 72 h) it was “Dark, R”.

For the compound `C#CCCCCOC1=CC(=O)N(C(=O)C=CC(C)NC(=O)C(CC(C)C)NC(=O)C(CC(C)C)OC(=O)C(C(C)CC)N(C)C)C1C` (stereo not drawn) [compound 5], in the experiment on recombinant SmCB1 (ratio of k2nd values), the “decrease in inhibitory potency vs gallinamide A” value was 2.4 fold. Further, the “SmCB1 inhibition k2nd” value with recombinant SmCB1 worked out at 2792 ± 360 M^–1·s^–1. Also, the schistosomula severity score was 0 in experiment [1] (setting [2]); 4 in experiment [1] (setting [3]); 4 in experiment [1] (setting [4]); 1 in experiment [1] (setting [5]); 4 in experiment [1] (setting [6]); 4 in experiment [1] (setting [7]).
